Source: patent publication US9303042B2, “Triazolothienopyrimidine compound inhibitors of urea transporters and methods of using inhibitors” (The Regents of the University of California, priority 2012, dated 2016)

What was measured:
[1] = LC/MS analysis of compound in mouse kidney, blood and urine
Experimental: (§1) In some studies, mice were placed on low, normal or […] diets (4%, 20% or 40% casein, Harlan Labs.) for 1 week prior study of dDAVP effects. […] Urea concentration was determined by a colorimetric enzymatic assay as described above. Measurements were also done in the absence of dDAVP in which urine was collected during free access to food and water.
Kidneys were weighed, mixed with acetic acid (100 μL per 1 g tissue) and ethyl acetate (10 mL per 1 g tissue), and homogenized.

mice = test: Urinary concentration in mice; type: in vivo, mouse
Experimental: as §1, with “water. […]” for “water.”

[2] = for several hours following a single intraperitoneal administration
[3] = free access to food and water, no dDAVP, 300 μg

With `CCc1ccc(S(=O)(=O)c2nnn3c2nc(NCc2cccs2)c2sccc23)cc1` [UTBinh-14, [3-(4-Ethyl-benzenesulfonyl)-thieno[2,3-e][1,2,3]triazolo[1,5-a]pyrimidin-5-yl]-thiophen-2-ylmethylamine] the concentration in kidney ([1]; for at least 4 h after single intraperitoneal 300 μg) was “greater than 1 μM”, the concentration in blood [1, 2] was “greater than 1 μM” and the concentration in urine [1, 2] was “greater than 1 μM”. For the same compound, the “Peak concentration in kidney” value ([1]; single intraperitoneal 300 μg, normalized to kidney water volume) was “approximately 10 μM”, the “urine osmolality, UT-B knockout mice” value (mice; 300 μg intraperitoneal, dDAVP) was “did not significantly reduce” and the “urine urea concentration, UT-B knockout mice” value (mice; 300 μg intraperitoneal, dDAVP) was “did not significantly reduce”. For the same compound, the “urine osmolality, wild type mice” value (mice; 300 μg intraperitoneal, dDAVP 1 h later) was “significantly reduced”, the “effect on dDAVP-stimulated urinary concentration, low-protein diet” value (mice; 1 week low-protein diet, 300 μg) was “little effect” and the urine osmolality (mice; [3]) was “reduced”. For the same compound, the urine urea concentration (mice; [3]) was “reduced” and the urine volume (mice; [3]) was “significantly increased”.
